Measured values published in publication PMC4850295, “Using a Genetically Encoded Sensor to Identify Inhibitors of Toxoplasma gondii Ca^2+ Signaling” (The Journal of Biological Chemistry, 2016).

What follows are molecules tested on T1, GCaMP5-expressing T. gondii. Details: 100 uM zaprinast stimulation; 10 min pretreatment; mean of two replicates; 0.23 h.
T1 construct: whole extracellular parasites expressing GCaMP5 Ca2+ sensor
Design: species or system GCaMP5-expressing Toxoplasma gondii, extracellular; GCaMP5 fluorescence (cytosolic Ca2+) after 100 uM zaprinast in compound-pretreated extracellular parasites, background-subtracted, relative to zaprinast alone
Method: GCaMP5-expressing parasites were suspended in Ringer's solution at 4 × 10^7 parasites/ml, and 50 μl of parasites were applied to each well of a 96-well plate (Costar, catalog no. 3631). […] Parasites were then treated with 100 μM zaprinast or 0.1% DMSO as a vehicle control and incubated at 37 °C with 5% CO2 for an additional 4 min before measuring fluorescence with excitation and emission wavelengths of 485 and 525 nm, respectively, on a SpectraMax M3 (Molecular Devices). Basal fluorescence, measured from untreated parasites, was subtracted from all values, and results were expressed as -fold change from parasites treated only with zaprinast. Z′ factors were determined from (i) parasites treated with zaprinast versus untreated parasites and (ii) parasites treated with a final concentration of 1 μM Cpd2 or a vehicle control followed by zaprinast, using the formula, Z′ = 1 − 3(σp + σn)/(|μp − μn|), where σp and σn indicate S.D. values of positive and negative controls, and μp and μn indicate the means of positive and negative controls, respectively. […] We predicted that the zaprinast response measured in GCaMP5-expressing parasites could form the basis for a phenotypic screen. Such a screen would benefit from the known importance of Ca^2+ signaling in parasite biology along with the reported success rate of cell-based phenotypic assays. We designed a screen wherein extracellular GCaMP5-expressing parasites were pretreated with compounds for 10 min before stimulation with zaprinast, and parasite fluorescence was measured 4 min later. We expected that compounds that interfered with the zaprinast response would reduce fluorescence. We calculated a Z′-factor for this screen to determine its dynamic range and suitability to high throughput screening. To do so, we compared zaprinast-treated parasites to untreated parasites or those pretreated with the PKG inhibitor Compound 2 (Cpd2) ([55]). […] We obtained the compound libraries published kinase inhibitor sets PKIS1 ([57]) and PKIS2 (unpublished), from GlaxoSmithKline and applied our phenotypic screen to the 823 ATP mimetics represented in these collections (Fig. 2B and supplemental Table S1). The compounds were screened at a single 10 μM dose with two biological replicates.
For COc1cc(C2=NC(c3ccc(Cl)cc3F)C(C(=O)Nc3ccc4[nH]ncc4c3)=C(C)N2)ccn1 (centres unmarked) [GSK534911A], the “fold change in fluorescence relative to zaprinast alone” value was 1.41. In the case of COc1ccc(C2=NC(c3ccc(Cl)cc3F)C(C(=O)Nc3ccc4[nH]ncc4c3)=C(C)N2)cn1 (centres unmarked) [GSK534913A], the “fold change in fluorescence relative to zaprinast alone” value is reported as 1.286. For CCn1c(-c2nonc2N)nc2c(C#CCN)ncc(OCCCN)c21 [GSK561866B], the “fold change in fluorescence relative to zaprinast alone” value was 1.218. With C[C@@H](Oc1cc(-n2cnc3ccc(OCC4CCN(C)CC4)cc32)sc1C(N)=O)c1ccccc1Cl [GSK571989A] the “fold change in fluorescence relative to zaprinast alone” value was 0.9822. For C[C@@H](Oc1cc(-n2cnc3ccc(OC4CCN(C)CC4)cc32)sc1C(N)=O)c1ccccc1Cl [GSK579289A], the “fold change in fluorescence relative to zaprinast alone” value was 0.9541. For C[C@@H](Oc1cc(-n2cnc3cc(-c4cnn(C)c4)ccc32)sc1C(N)=O)c1ccccc1Cl [GSK580432A], the “fold change in fluorescence relative to zaprinast alone” value was 1.313. Cc1ccc(S(=O)(=O)Nc2ccc(Nc3nccc(Nc4cccc5[nH]ncc45)n3)cc2)cc1 [GSK581271A] was tested, and the “fold change in fluorescence relative to zaprinast alone” value was 0.8813. COc1ccc(-c2ccncc2)cc1C(N)=O [GSK605714A] was tested, and the “fold change in fluorescence relative to zaprinast alone” value was 1.144. For CCn1c(-c2nonc2N)nc2c(C#CC(C)(C)O)ncc(OC[C@@H]3CCCN3)c21 [GSK614526A], the “fold change in fluorescence relative to zaprinast alone” value was 1.198. In the case of CCn1c(-c2nonc2N)nc2c(C#CC(C)(C)O)ncc(OC3CCNCC3)c21 [GSK619487A], the “fold change in fluorescence relative to zaprinast alone” value is reported as 1.184. For NC(=O)c1cc(-c2ccc(F)cc2)cc(-c2ccncc2)c1N [GSK620503A], the “fold change in fluorescence relative to zaprinast alone” value was 1.057. With NC(=O)c1cc(-c2ccncc2)cc(-c2ccccc2)c1N [GSK625137A] the “fold change in fluorescence relative to zaprinast alone” value was 1.053. In the case of CNC(=O)c1cc(-c2ccc(F)cc2)cc(-c2ccc(S(=O)(=O)N3CCCC3)cc2)c1N [GSK635416A], the “fold change in fluorescence relative to zaprinast alone” value is reported as 1.111. For C[C@@H](Oc1cc(-n2cnc3cc(-c4ccnc(N5CCN(C)CC5)c4)ccc32)sc1C(N)=O)c1ccccc1Cl [GSK641502A], the “fold change in fluorescence relative to zaprinast alone” value was 1.062. For Nc1ncc(-c2cccnc2)c2scc(-c3ccc4c(c3)CCN4C(=O)Cc3ccccc3)c12 [GSK683281A], the “fold change in fluorescence relative to zaprinast alone” value was 1.385. With COc1c(C(N)=O)cc(-c2ccc(Cl)cc2)cc1-c1ccc(S(N)(=O)=O)cc1 [GSK711701A] the “fold change in fluorescence relative to zaprinast alone” value was 1.357. CCn1cc(-c2ccnc3[nH]ccc23)c(-c2cccc(NC(=O)Nc3ccc(OCc4ccccc4)cc3)c2)n1 [GSK718429A] was tested, and the “fold change in fluorescence relative to zaprinast alone” value was 1.268. O=S(=O)(c1ccc(-c2ccnc3[nH]ccc23)cc1)N1CCCC1 [GSK846226A] was tested, and the “fold change in fluorescence relative to zaprinast alone” value was 1.029. With CCn1c(-c2nonc2N)nc2c(C#CC(C)(C)O)nc(OCCN)cc21 [GSK902056A] the “fold change in fluorescence relative to zaprinast alone” value was 1.153. In the case of C[C@@H](Oc1cc(-n2cnc3cc(-c4ccnc(NCCS(C)(=O)=O)c4)ccc32)sc1C(N)=O)c1ccccc1Cl [GSK907232A], the “fold change in fluorescence relative to zaprinast alone” value is reported as 1.132. CCn1c(-c2nonc2N)nc2c(C#CC(C)(C)O)nc(OC[C@@H](N)c3ccccc3)cc21 [GSK938890A] was tested, and the “fold change in fluorescence relative to zaprinast alone” value was 1.022. With CCn1c(-c2nonc2N)nc2c(C#CC(C)(C)O)nc(OC[C@H](N)c3ccccc3)cc21 [GSK943949A] the “fold change in fluorescence relative to zaprinast alone” value was 1.114. With CCn1c(-c2nonc2N)nc2c(C#CC(C)(C)O)nc(OCCNC)cc21 [GSK949675A] the “fold change in fluorescence relative to zaprinast alone” value was 1.152. For NS(=O)(=O)c1ccc(-c2cc3ccncc3cc2OCc2ccccc2)cc1 [GSK953913A], the “fold change in fluorescence relative to zaprinast alone” value was 1.131. Cc1ccc(NC(=O)Nc2cccc(C(F)(F)F)c2)cc1 [GSK955403A] was tested, and the “fold change in fluorescence relative to zaprinast alone” value was 0.9183. For Fc1cccc(COc2ccc(Nc3ncnc4sc(-c5ccco5)cc34)cc2Cl)c1 [GSK969786A], the “fold change in fluorescence relative to zaprinast alone” value was 0.8987. For NCCNS(=O)(=O)c1ccc(-c2ccnc3[nH]ccc23)cc1 [GSK977617A], the “fold change in fluorescence relative to zaprinast alone” value was 1.223. In the case of CN(C)CCNS(=O)(=O)c1ccc(-c2ccnc3[nH]ccc23)cc1 [GSK977620A], the “fold change in fluorescence relative to zaprinast alone” value is reported as 1.218. With NS(=O)(=O)c1cccc(-c2cc3ccncc3cc2OCc2ccccc2)c1 [GSK980961A] the “fold change in fluorescence relative to zaprinast alone” value was 0.9595. In the case of Cc1cccc(Nc2nc(N[C@H]3CCCC[C@H]3N)ncc2C(N)=O)c1 [GSK986310C], the “fold change in fluorescence relative to zaprinast alone” value is reported as 1.388. In the case of CS(=O)(=O)Nc1ccc(-c2ccnc3[nH]ccc23)cc1 [GSK993273A], the “fold change in fluorescence relative to zaprinast alone” value is reported as 1.181. For CCCN1CCC=C(c2ccc(Nc3nc(Nc4ccccc4C(N)=O)c4cc[nH]c4n3)c(C)c2)C1 [GSK994854A], the “fold change in fluorescence relative to zaprinast alone” value was 1.737. In the case of CCn1c(-c2nonc2N)nc2c(C#CC(C)(C)O)nc(CN3CCCC3)cc21 [GSK1000163A], the “fold change in fluorescence relative to zaprinast alone” value is reported as 1.153. For CCn1c(-c2nonc2N)nc2c(C#CC(C)(C)O)nc(O[C@@H](CN)c3ccccc3)cc21 [GSK1007102B], the “fold change in fluorescence relative to zaprinast alone” value was 1.188. Cc1ccc(NC(=O)Nc2cc(C(C)(C)C)nn2-c2ccccc2)cc1 [GSK1014915A] was tested, and the “fold change in fluorescence relative to zaprinast alone” value was 0.9452. For NC(=O)c1sc(-n2cnc3ccccc32)cc1OCc1ccccc1Br [GSK1023156A], the “fold change in fluorescence relative to zaprinast alone” value was 0.8843. With COC(=O)c1sc(-n2cnc3cc(OC)c(OC)cc32)cc1OCc1ccccc1C(F)(F)F [GSK1030058A] the “fold change in fluorescence relative to zaprinast alone” value was 0.7743. In the case of COc1cc2ncn(-c3cc(OCc4ccccc4C(F)(F)F)c(C(C)=O)s3)c2cc1OC [GSK1030059A], the “fold change in fluorescence relative to zaprinast alone” value is reported as 1.158. For CNC(=O)c1sc(-n2cnc3cc(OC)c(OC)cc32)cc1OCc1ccccc1C(F)(F)F [GSK1030061A], the “fold change in fluorescence relative to zaprinast alone” value was 1.028. For COc1cc2ncn(-c3cc(OCc4ccccc4C(F)(F)F)c(C(=O)N(C)C)s3)c2cc1OC [GSK1030062A], the “fold change in fluorescence relative to zaprinast alone” value was 0.999. With O=c1[nH]cc(-c2ccc(O)cc2)c2sc(-c3ccncc3)cc12 [GSK1033723A] the “fold change in fluorescence relative to zaprinast alone” value was 1.385. For Nc1nccc(-c2ccc3c(N)n[nH]c3c2)n1 [GSK1034945A], the “fold change in fluorescence relative to zaprinast alone” value was 1.107. In the case of CCCN1CCCC(c2ccc(Nc3nc(Nc4cc(F)ccc4C(N)=O)c4cc[nH]c4n3)c(OC)c2)C1 (centres unmarked) [GSK1173862A], the “fold change in fluorescence relative to zaprinast alone” value is reported as 1.98. In the case of COc1cc(N2CCN(C(C)C)CC2)ccc1Nc1nc(Nc2ccc(F)cc2C(N)=O)c2cc[nH]c2n1 [GSK1220512A], the “fold change in fluorescence relative to zaprinast alone” value is reported as 1.812. In the case of COc1ccc(Nc2nccc(-c3ccc(NC(=O)c4cc5cc(F)ccc5[nH]4)cc3)n2)cc1 [GSK1229496A], the “fold change in fluorescence relative to zaprinast alone” value is reported as 1.727. For NCC(NC(=O)c1cc(-c2ccnc3[nH]ccc23)cs1)c1ccccc1 (centres unmarked) [GSK1229959A], the “fold change in fluorescence relative to zaprinast alone” value was 0.7412. In the case of NCC(C(=O)Nc1cc(Br)c(-c2ccnc3[nH]ccc23)s1)c1ccccc1 (centres unmarked) [GSK1269851A], the “fold change in fluorescence relative to zaprinast alone” value is reported as 0.2436. For NCCCC(NC(=O)c1cc(Br)c(-c2ccnc3[nH]ccc23)s1)c1ccccc1 (centres unmarked) [GSK1287544A], the “fold change in fluorescence relative to zaprinast alone” value was 0.7469. Cc1cccc(Nc2nc(NCCN)ncc2C(N)=O)c1 [GSK1292139B] was tested, and the “fold change in fluorescence relative to zaprinast alone” value was 0.903. In the case of NCCC(NC(=O)c1cc(Br)c(-c2ccnc3[nH]ccc23)s1)c1ccccc1 (centres unmarked) [GSK1307810A], the “fold change in fluorescence relative to zaprinast alone” value is reported as 0.5195. In the case of NCC(NCc1ccc(-c2ccnc3[nH]ccc23)s1)c1ccccc1 (centres unmarked) [GSK1321565A], the “fold change in fluorescence relative to zaprinast alone” value is reported as 0.4604. In the case of NC(CNC(=O)c1cc(Br)c(-c2ccnc3[nH]ccc23)s1)c1ccccc1 (centres unmarked) [GSK1322949A], the “fold change in fluorescence relative to zaprinast alone” value is reported as 0.4024. With NCC(NC(=O)c1cc(-c2cccnc2)c(-c2ccnc3[nH]ccc23)s1)c1ccccc1 (centres unmarked) [GSK1323434A] the “fold change in fluorescence relative to zaprinast alone” value was 0.997. In the case of NCC(NC(=O)c1cc(-c2cn[nH]c2)c(-c2ccnc3[nH]ccc23)s1)c1ccccc1 (centres unmarked) [GSK1325775A], the “fold change in fluorescence relative to zaprinast alone” value is reported as 1.276. With O=C(Nc1c(F)cccc1F)c1cc(C(=O)c2ccccc2F)c[nH]1 [GSK1326180A] the “fold change in fluorescence relative to zaprinast alone” value was 0.8808. With CCCN1CCC(c2ccc(Nc3nc(Nc4cc(F)ccc4C(N)=O)c4cc[nH]c4n3)c(OC)c2)CC1 [GSK1326255A] the “fold change in fluorescence relative to zaprinast alone” value was 1.826. COc1ccc(CNC(=O)NC2CCN(c3ccnc(Nc4ccc(F)cc4)n3)C2)cc1 (centres unmarked) [GSK1379706A] was tested, and the “fold change in fluorescence relative to zaprinast alone” value was 0.6471. For N#Cc1cccc(C(=O)NC2CCN(c3ccnc(Nc4ccc(F)cc4)n3)C2)c1 (centres unmarked) [GSK1379708A], the “fold change in fluorescence relative to zaprinast alone” value was 1.095. For CC(C(=O)NC1CCN(c2ccnc(Nc3ccc(F)cc3)n2)C1)c1ccc(Cl)cc1 (centres unmarked) [GSK1379713A], the “fold change in fluorescence relative to zaprinast alone” value was 0.7096.
